“Also recorded” adds a separate entry of the source. Peptide text beside a SMILES is read from it.
Tested on: chick sensory neurons from dorsal root ganglia
Assay: Chick dorsal root ganglion cultures and neurite outgrowth
Type: cell-based
Settings: 1 mM concentration; whole DRG explants, forty-eight hours after drug treatment
Procedure: Dorsal root ganglia were dissected from chick embryos of ten-day gestation. Whole ganglion explants were cultured on thin layer Matrigel-coated 12 well plates with Liebovitz L15 plus high glucose media supplemented with 2 mM glutamine and 10% fetal calf serum, and also containing 10 μM cytosine […] (Ara C) at 37° C. in an environment containing 5% CO2. Twenty-four hours later, the DRGs were treated with various concentrations of nerve growth factor, immunophilin ligands or combinations of NFG plus drugs. Forty-eight hours after drug treatment, the ganglia were visualized under phase contrast or Hoffman Modulation contrast with a Zeiss Axiovert inverted microscope. Photomicrographs of the explants were made, and neurite outgrowth was quantitated. Neurites longer that the DRG diameter were counted as positive, with total number of neurites quantitated per each experimental condition. Three to four DRGs are cultured per well, and each treatment was performed in duplicate.
The maximal increase in the number of processes, their length and branching is quite similar at maximally effective […] of the cyclophilin ligands and of NGF (100 ng/ml). With progressively increasing concentrations of the various drugs, one observes a larger number of processes, more extensive branching and a grater length of individual processes.

| SMILES | neurotrophic effects (promotion of neurite outgrowth in chick sensory neurons) |
| --- | --- |
| CC(=O)N1CCC[C@H]1C(=O)N[C@@H](C)C(=O)N1CCC[C@H]1C(=O)N[C@@H](C)C(N)=O [compound 2] (Ac-PAPA-NH2) | promotion of neurite outgrowth; also recorded: potent neurotrophic effects |
| CC(=O)N1CCC[C@H]1C(=O)NCC(=O)N1CCC[C@H]1C(=O)N[C@@H](Cc1ccccc1)C(N)=O [compound 1] (Ac-PGPF-NH2) | promotion of neurite outgrowth; also recorded: powerful neurotrophic effects |

Reference: US20030068321A1, “Methods of effecting neuronal activity” (Guilford Pharmaceuticals, Inc., priority 2001, published 2003)
